According to patent publication US9133220B2, “Boron-containing 5-arylidene-3,5-dihydro-4H-imidazol-4-ones” (Evrogen Joint Stock Company, priority 2012, dated 2015):
In brackets after ≈: the same amount, converted by molar mass. Like-named read-outs stand apart in the source and are kept apart here. Marks after values point to notes of the source that are not given here.

What was measured:
[1] = Measuring spectral characteristics (absorption and emission maxima, extinction coefficients); type: physicochemical
Method: (§1) To measure spectral characteristics of some compounds with the formula I weighted portions of compounds p-NH2-BDI-BF2, p-dimethylamino-BDI-BF2, p-diethylamino-BDI-BF2, p-HOBDI-BF2, di-F-p-HOBDI-BF2, p-diethylamino-BDI-dimethylaminoethenyl-BF2 and p-HOBDI-dimethylaminoethenyl-BF2 were dissolved in water, ethanol and acetonitrile. Absorption spectra were measured on Varian Cary 100 Bio spectrophotometer, fluorescence spectra were measured on Varian Cary Eclipse scanning spectrofluorometer.
The values of absorption and emission maxima and molar extinction coefficients for examples of compounds with the formula I in the indicated solvents are listed in a Table 2. Emission peaks of the investigated compounds settle into a rather wide range from 485 nm for p-HOBDI-BF2 to 598 nm for p-diethylamino-BDI-dimethylamino-ethenyl-BF2.

[2] = Quantum yield of fluorescence; type: physicochemical
Method: as §1
The compounds p-NH2-BDI-BF2, p-HOBDI-BF2 (anionic form), di-Fp-HOBDI-BF2 (anionic form), p-diethylamino-BDI-dimethylaminoethenyl-BF2, p-HOBDI-dimethylaminoethenyl-BF2 (anionic form) have rather high quantum yields of fluorescence in water solutions.

[3] = cited from earlier work; for emission peak: widely used fluorescent dyes, approximate values
[4] = Determination of solubility in water; type: physicochemical; settings: thermodynamic from solid
Method: To determine the solubility in water of compounds an excess amount of analyzed substance was put in a known volume of a solvent and stirred for 5 hours at r.t. The obtained mixture was centrifuged, and the concentration of a compound in mother liquor was measured with spectrophotometric method on the base of molar extinction coefficients data.

[5] = Photoacidity: acidity constants of ground and excited states; type: physicochemical
Text: Photoacidity is an ability to dissociate with formation of H^+ ion under the action of visible light. Photoacidity is characterized by constants of acidity of ground and excited states. Förster's equation describes the relationship between acidity constants of ground and excited states and energy of transfer between the states.
For compounds of the formula I, containing phenolic OH-group, high photoacidity—an ability to dissociate with formation of H^+ ion under the action of visible light—is a distinctive feature. […] (^1)((Z)-4-(2-(difluoroboryl)-3,5-difluoro-4-hydroxybenzylidene)-1,2-dimethyl-1H-imidazole-5(4H)-one)

[6] = Chemical stability at high pH; type: physicochemical; settings: pH 11, 70° C., 2 hours
Text: Compound of the general formula I differ from the majority of fluorescent dyes because of their high resistance to the action of different chemical factors—nucleophiles and high pH. […] It should be noted, that long-time heating in alkaline conditions may result in exchange of fluorine atoms from difluoroboryl residue to hydroxyl groups, however no significant change in absorption and fluorescence spectra is observed.

[7] = acidic and neutral pH values, r.t.
[8] = acidic and neutral values of pH
[9] = water, neutral form line, starred: only emission of deprotonated form can be measured due to high photoacidity

Compound: CCN(CC)c1ccc(/C=C2N=C(/C=C/N(C)C)N(C)C\2=O)c(B(F)F)c1 [(Z)-4-(4-(diethylamino)-2-(difluoroboryl)benzylidene)-2-((E)-2-(dimethylamino)vynil)-1-methyl-1H-imidazole-5(4H)-one]
- shift of emission and absorption spectra with change of more polar solvent (water) to less polar (ethanol, acetonitrile) [1]: hypsochromic shift
- Abs. peak ([1]; acetonitrile): 510 nm
- Emis. peak ([1]; acetonitrile): 583 nm
- Abs. peak ([1]; ethanol): 525 nm
- Emis. peak ([1]; ethanol): 588 nm
- Abs. peak ([1]; water): 525 nm
- Emis. peak ([1]; water): 598 nm
- Quantum yield of fluorescence ([2]; water): 0.35

Compound: O=C1NC=N/C1=C\c1cccn1B(F)F [(Z)-4-((1-(difluoroboryl)-1H-pyrrol-2-yl)methylene)-1H-imidazole-5(4H)-one]
- Quantum yield of fluorescence ([3]; comparison values for known fluorophores): 0.81

Compound: CCN1C(=CC=CC2=[N+](CCCCCC(=O)O)c3ccc(S(=O)(=O)O)cc3C2(C)C)C(C)(C)c2cc(S(=O)(=O)[O-])ccc21 [Cy3]
- emission peak [3]: 570 nm

Compound: CCCCCCCCCCCCCCCCCCN1/C(=C\C=C\c2oc3ccccc3[n+]2CCCCCCCCCCCCCCCCCC)Oc2ccccc21.[O-][Cl+3]([O-])([O-])[O-] [DiO]
- emission peak [3]: 501 nm

Compound: CC1=N/C(=C\c2cc(F)c(O)cc2B(F)F)C(=O)N1C [F-p-HOBDI-BF2, (Z)-4-(2-(difluoroboryl)-5-fluoro-4-hydroxybenzylidene)-1,2-dimethyl-1H-imidazole-5(4H)-one]
- solubility at 5 h [4, 7]: ~1000 µM (≈ 282 µg/mL)
- solubility at 5 h [4, 8]: 1 µM (≈ 0.282 µg/mL)
- Abs. peak ([1]; acetonitrile, anionic form): 522 nm
- Emis. peak ([1]; acetonitrile, anionic form): 543 nm
- Abs. peak ([1]; acetonitrile, neutral form): 397 nm
- Emis. peak ([1]; acetonitrile, neutral form): 468 nm
- ext. coef. ([1]; acetonitrile, neutral form): 28000 M⁻¹ cm⁻¹
- shift of emission and absorption spectra with change of more polar solvent (water) to less polar (ethanol, acetonitrile) ([1]; anionic form): bathochromic shift
- Abs. peak ([1]; ethanol, anionic form): 505 nm
- Emis. peak ([1]; ethanol, anionic form): 537 nm
- ext. coef. ([1]; ethanol, anionic form): 48000 M⁻¹ cm⁻¹
- Abs. peak ([1]; ethanol, neutral form): 408 nm
- Emis. peak ([1]; ethanol, neutral form): 482 nm
- ext. coef. ([1]; ethanol, neutral form): 24000 M⁻¹ cm⁻¹
- shift of emission and absorption spectra with change of more polar solvent (water) to less polar (ethanol, acetonitrile) ([1]; neutral form): hypsochromic shift
- Abs. peak ([1]; water, anionic form): 478 nm
- Emis. peak ([1]; water, anionic form): 528 nm
- ext. coef. ([1]; water, anionic form): 38300 M⁻¹ cm⁻¹
- Abs. peak ([1]; water, neutral form): 392 nm
- ext. coef. ([1]; water, neutral form): 31500 M⁻¹ cm⁻¹
- Emis. peak [1, 9]: 528* nm

Compound: O=C1OC2(c3ccc(O)cc3Oc3cc(O)ccc32)c2ccc(N=C=S)cc21 [FITC]
- emission peak [3]: 521 nm

Compound: CC1=N/C(=C\c2cc(F)c(O)c(F)c2B(F)F)C(=O)N1C [di-F-p-HOBDI-BF2, (Z)-4-(2-(difluoroboryl)-3,5-difluoro-4-hydroxybenzylidene)-1,2-dimethyl-1H-imidazole-5(4H)-one]
- solubility at 5 h [4, 7]: ~1000 µM (≈ 300 µg/mL)
- solubility at 5 h [4, 8]: 1 µM (≈ 0.3 µg/mL)
- Abs. peak ([1]; acetonitrile, anionic form): 519 nm
- Emis. peak ([1]; acetonitrile, anionic form): 542 nm
- Abs. peak ([1]; acetonitrile, neutral form): 392 nm
- Emis. peak ([1]; acetonitrile, neutral form): 460 nm
- ext. coef. ([1]; acetonitrile, neutral form): 26000 M⁻¹ cm⁻¹
- shift of emission and absorption spectra with change of more polar solvent (water) to less polar (ethanol, acetonitrile) ([1]; anionic form): bathochromic shift
- Abs. peak ([1]; ethanol, anionic form): 503 nm
- Emis. peak ([1]; ethanol, anionic form): 538 nm
- ext. coef. ([1]; ethanol, anionic form): 45000 M⁻¹ cm⁻¹
- Abs. peak ([1]; ethanol, neutral form): 400 nm
- ext. coef. ([1]; ethanol, neutral form): 21000 M⁻¹ cm⁻¹
- Emis. peak ([1]; ethanol, neutral form line, starred: only emission of deprotonated form can be measured due to high photoacidity): 538* nm
- shift of emission and absorption spectra with change of more polar solvent (water) to less polar (ethanol, acetonitrile) ([1]; neutral form): hypsochromic shift
- Abs. peak ([1]; water, anionic form): 484 nm
- Emis. peak ([1]; water, anionic form): 532 nm
- ext. coef. ([1]; water, anionic form): 44400 M⁻¹ cm⁻¹
- Abs. peak ([1]; water, neutral form): 400 nm
- ext. coef. ([1]; water, neutral form): 32000 M⁻¹ cm⁻¹
- Emis. peak [1, 9]: 532* nm
- Quantum yield of fluorescence ([2]; water, anionic form): 0.73
- pKa ([5]; excited state): < 0
- pKa* ([5]; excited state, listed as (Z)-4-(2-(difluoroboryl)-3,5-difluoro-4-hydroxybenzylidene)-1,2-dimethyl-1H-imid): lies in the negative region
- pKa* ([5]; excited state, listed as diF-p-HOBDI-BF2): in the range of negative values
- pKa ([5]; ground state, phenol group): 5.2

Compound: CC1=N/C(=C\c2ccc(O)cc2)C(=O)N1C [p-HOBDI, (Z)-4-(4-hydroxybenzylidene)-1,2-dimethyl-1H-imidazole-5(4H)-one]
- Quantum yield ([3]; p-HOBDI, from D. Mandal et al., J. Phys. Chem. B 108, 1102 (2004), spans water, ethanol, acetonitrile columns): Quantum yield is less than 10^−4

Compound: CC1=N/C(=C\c2ccc(O)cc2B(F)F)C(=O)N1C [p-HOBDI-BF2, (Z)-4-(2-(difluoroboryl)-4-hydroxybenzylidene)-1,2-dimethyl-1H-imidazole-5(4H)-one]
- solubility at 5 h [4, 7]: ~1000 µM (≈ 264 µg/mL)
- solubility at 5 h [4, 8]: 1 µM (≈ 0.264 µg/mL)
- effect of incubation on absorption and emission spectra [6]: doesn't affect significantly
- Abs. peak ([1]; acetonitrile, anionic form): 521 nm
- Emis. peak ([1]; acetonitrile, anionic form): 540 nm
- Abs. peak ([1]; acetonitrile, neutral form): 402 nm
- Emis. peak ([1]; acetonitrile, neutral form): 469 nm
- ext. coef. ([1]; acetonitrile, neutral form): 31000 M⁻¹ cm⁻¹
- shift of emission and absorption spectra with change of more polar solvent (water) to less polar (ethanol, acetonitrile) ([1]; anionic form): bathochromic shift
- bathochromic shift of emission and absorption spectra relative to p-HOBDI ([1]; different solvents): 30-40 nm
- Abs. peak ([1]; ethanol, anionic form): 512 nm
- Emis. peak ([1]; ethanol, anionic form): 532 nm
- ext. coef. ([1]; ethanol, anionic form): 55000 M⁻¹ cm⁻¹
- Abs. peak ([1]; ethanol, neutral form): 416 nm
- Emis. peak ([1]; ethanol, neutral form): 483 nm
- ext. coef. ([1]; ethanol, neutral form): 25000 M⁻¹ cm⁻¹
- shift of emission and absorption spectra with change of more polar solvent (water) to less polar (ethanol, acetonitrile) ([1]; neutral form): hypsochromic shift
- Abs. peak ([1]; water, anionic form): 485 nm
- Emis. peak ([1]; water, anionic form): 520 nm
- ext. coef. ([1]; water, anionic form): 47000 M⁻¹ cm⁻¹
- Abs. peak ([1]; water, neutral form): 404 nm
- Emis. peak ([1]; water, neutral form): 485 nm
- ext. coef. ([1]; water, neutral form): 26000 M⁻¹ cm⁻¹
- Quantum yield of fluorescence ([2]; acetonitrile): 0.73
- fluorescence lifetime ([2]; acetonitrile): 3.2 ns
- Quantum yield of fluorescence ([2]; acetonitrile, anionic form): 0.73
- Quantum yield of fluorescence ([2]; water, anionic form): 0.54
- pKa ([5]; excited state): 2
- pKa ([5]; ground state, phenol group): 6.4

Compound: CN(C)/C=C/C1=NC(=C\c2ccc(O)cc2B(F)F)/C(=O)N1C [p-HOBDI-dimethylaminoethenyl-BF2, (Z)-4-(2-(difluoroboryl)-4-hydroxybenzylidene)-2-((E)-2-(dimethylamino)vynil)-1-methyl-1H-imidazole-5(4H)-one]
- Abs. peak ([1]; acetonitrile, anionic form): 555 nm
- Emis. peak ([1]; acetonitrile, anionic form): 598 nm
- Abs. peak ([1]; acetonitrile, neutral form): 444 nm
- Emis. peak ([1]; acetonitrile, neutral form): 502 nm
- shift of emission and absorption spectra with change of more polar solvent (water) to less polar (ethanol, acetonitrile) ([1]; anionic form): bathochromic shift
- Abs. peak ([1]; ethanol, anionic form): 529 nm
- Emis. peak ([1]; ethanol, anionic form): 587 nm
- Abs. peak ([1]; ethanol, neutral form): 450 nm
- Emis. peak ([1]; ethanol, neutral form): 505 nm
- shift of emission and absorption spectra with change of more polar solvent (water) to less polar (ethanol, acetonitrile) ([1]; neutral form): hypsochromic shift
- Abs. peak ([1]; water, anionic form): 502 nm
- Emis. peak ([1]; water, anionic form): 570 nm
- Abs. peak ([1]; water, neutral form): 467 nm
- Emis. peak ([1]; water, neutral form): 521 nm
- Quantum yield of fluorescence ([2]; water, anionic form): 0.27

Compound: CC1=N/C(=C\c2ccc(N)cc2B(F)F)C(=O)N1C [p-NH2-BDI-BF2, (Z)-4-(4-amino-2-(difluoroboryl)benzylidene)-1,2-dimethyl-1H-imidazole-5(4H)-one]
- shift of emission and absorption spectra with change of more polar solvent (water) to less polar (ethanol, acetonitrile) [1]: hypsochromic shift
- Abs. peak ([1]; acetonitrile): 451 nm
- Emis. peak ([1]; acetonitrile): 518 nm
- Abs. peak ([1]; ethanol): 476 nm
- Emis. peak ([1]; ethanol): 532 nm
- Abs. peak ([1]; water): 475 nm
- Emis. peak ([1]; water): 532 nm
- Quantum yield of fluorescence ([2]; acetonitrile): 0.62
- Quantum yield of fluorescence ([2]; ethanol): 0.64
- Quantum yield of fluorescence ([2]; water): 0.70

Compound: CC1=N/C(=C\c2ccc(N(C)C)cc2B(F)F)C(=O)N1C [p-dimethylamino-BDI-BF2, (Z)-4-(4-(dimethylamino)-2-(difluoroboryl)benzylidene)-1,2-dimethyl-1H-imidazole-5(4H)-one]
- shift of emission and absorption spectra with change of more polar solvent (water) to less polar (ethanol, acetonitrile) [1]: hypsochromic shift
- Abs. peak ([1]; acetonitrile): 483 nm
- Emis. peak ([1]; acetonitrile): 551 nm
- Abs. peak ([1]; ethanol): 498 nm
- Emis. peak ([1]; ethanol): 557 nm
- Abs. peak ([1]; water): 507 nm
- Emis. peak ([1]; water): 565 nm
- Quantum yield of fluorescence ([2]; acetonitrile): 0.49
- Quantum yield of fluorescence ([2]; ethanol): 0.31
- Quantum yield of fluorescence ([2]; water): 0.05
